One data set has as its target T1, Recombinant human BACE1 (Homo sapiens, UniProt P56817).
T1 construct: purchased R&D Systems
Kind of data set: Assay of BACE1 inhibitory activity: 96-well. Format: biochemical. The note with it: Assay format 96-well.

Data set [1] concerns Aβ production in neuroblastoma SH-SY5Y cells (SH/APPwt). Kind of data set: β-amyloid (Aβ) production inhibitory effect in cell: 96-well. It counts as cell-based. The note with it: Homo sapiens, Assay format 96-well. An outline of the steps:
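SH-SY5Y cells overexpressing human wild-type APP, precultured 2 h at […] under 5% CO2, then exposed to test compound for 24 h (final DMSO 1%). Aβ1-40 in culture supernatant quantified by HTRF after overnight incubation at 4° C in the dark.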

Data set [2] is described as follows: Pharmacokinetic study (oral absorption). It counts as in vivo. Particulars: bioavailability from AUCs of oral and intravenous administration; mouse or rat. The procedure: (1l) Animal: mouse or rat (2) Breeding conditions: mouse or rat was allowed free access to the tap water and the solid food. (3) Dose and grouping: orally or intravenously administered at a predetermined dose: grouping was as follows (Dose depends on the compound) Oral administration: 1 to 30 mg/kg (n=2 to 3) Intravenous administration: 0.5 to 10 mg/kg (n=2 to 3) (4) Dosing formulation: for oral administration, in a solution or a suspension state; for intravenous administration, in a solubilized state (5) Dosing method: in oral administration, forcedly administer using a syringe attached a flexible feeding tube; in intravenous administration, administer from caudal vein using a syringe attached with a needle. (6) Evaluation items: blood was collected at the scheduled time, and the plasma concentration of the compound of the present invention was measured by LC/MS/MS (7) Statistical analysis: regarding the transition of the plasma concentration of the compound of the present invention, the area under the plasma concentration-time curve (AUC) was calculated by non-linear least squares program WinNonlin (Registered trademark), and the bioavailability (BA) of the compound of the present invention was calculated from the AUCs of the oral administration group and intravenous administration group

Another data set concerns the target T2, P-gp (Mus musculus, UniProt P21447).
T2 construct: from tissue; host or cells: living mice (brain/plasma distribution), wild type versus mdr1a (−/−)
Kind of data set: P-gp substrate test using mdr1a (−/−) B6 mice. Particulars: mdr1a (−/−) B6 (KO) and C57BL/6J (wild), mouse, brain / plasma, po, 2 mg/kg, Kp in KO mouse (mdr1a (−/−) B6) / Kp in Wild mouse, read-out: Kp ratio (2 mg/kg, po, 2 hr). It counts as in vivo. Here is the method: Animal: mdrla (−/−) B6 mice (KO mouse) or […] mice (Wild mouse)
1. Animals may be fed prior to dosing of the compounds of the present invention. 2. The compounds of the present invention were dosed to three animals for each time point and blood and brain samples were removed at selected time points (e.g. 15 min, 30 min, 1 hr, 2 hr, 4 hr, 6 hr, 8 hr, or 24 hr) after dosing. Blood (0.3-0.7 mL) was collected via trunk blood collection with syringe containing anticoagulants (EDTA and heparin). Blood and tissue (e.g. brain) samples were immediately placed on melting ice. 3. Blood samples were centrifuged (1780×g for 10 minutes) for cell removal to obtain plasma. Then, plasma samples were transferred to a clean tube and stored in a −70° C. freezer until analysis. 4. Tissue (e.g. brain) samples were homogenized at a 1:3 ratio of tissue weight to ml of stilled water and transferred to a clean tube and stored in a −70° C. freezer until analysis. 5. Plasma and tissue (e.g. brain) samples were prepared using protein prceipitation and analyzed by LC/MS/MS. The analytical method was calibrated by including a standard curve constructed with blank plasma or brain samples and known quantities of analyte. Quality control samples were included to monitor the accuracy and precision of the methodology. 6. Plasma and brain concentration values (ng/mL and ng/g) were introduced into an appropriate tool used for calculating the pharmacokinetic parameters. A common platform was the WinNonlin (Registered trademark) pharmacokinetic software modeling program.
Kp: Tissue to Plasma concentration ratio Kp ratio=Kp in KO mouse/Kp in Wild mouse KO/Wild ratio of AUC Tissue/AUC Plasma ={AUC Tissue/AUC Plasma (KO mouse)}/{AUC Tissue/AUC Plasma (Wild mouse)}

T2 sequence (P21447 whole entry): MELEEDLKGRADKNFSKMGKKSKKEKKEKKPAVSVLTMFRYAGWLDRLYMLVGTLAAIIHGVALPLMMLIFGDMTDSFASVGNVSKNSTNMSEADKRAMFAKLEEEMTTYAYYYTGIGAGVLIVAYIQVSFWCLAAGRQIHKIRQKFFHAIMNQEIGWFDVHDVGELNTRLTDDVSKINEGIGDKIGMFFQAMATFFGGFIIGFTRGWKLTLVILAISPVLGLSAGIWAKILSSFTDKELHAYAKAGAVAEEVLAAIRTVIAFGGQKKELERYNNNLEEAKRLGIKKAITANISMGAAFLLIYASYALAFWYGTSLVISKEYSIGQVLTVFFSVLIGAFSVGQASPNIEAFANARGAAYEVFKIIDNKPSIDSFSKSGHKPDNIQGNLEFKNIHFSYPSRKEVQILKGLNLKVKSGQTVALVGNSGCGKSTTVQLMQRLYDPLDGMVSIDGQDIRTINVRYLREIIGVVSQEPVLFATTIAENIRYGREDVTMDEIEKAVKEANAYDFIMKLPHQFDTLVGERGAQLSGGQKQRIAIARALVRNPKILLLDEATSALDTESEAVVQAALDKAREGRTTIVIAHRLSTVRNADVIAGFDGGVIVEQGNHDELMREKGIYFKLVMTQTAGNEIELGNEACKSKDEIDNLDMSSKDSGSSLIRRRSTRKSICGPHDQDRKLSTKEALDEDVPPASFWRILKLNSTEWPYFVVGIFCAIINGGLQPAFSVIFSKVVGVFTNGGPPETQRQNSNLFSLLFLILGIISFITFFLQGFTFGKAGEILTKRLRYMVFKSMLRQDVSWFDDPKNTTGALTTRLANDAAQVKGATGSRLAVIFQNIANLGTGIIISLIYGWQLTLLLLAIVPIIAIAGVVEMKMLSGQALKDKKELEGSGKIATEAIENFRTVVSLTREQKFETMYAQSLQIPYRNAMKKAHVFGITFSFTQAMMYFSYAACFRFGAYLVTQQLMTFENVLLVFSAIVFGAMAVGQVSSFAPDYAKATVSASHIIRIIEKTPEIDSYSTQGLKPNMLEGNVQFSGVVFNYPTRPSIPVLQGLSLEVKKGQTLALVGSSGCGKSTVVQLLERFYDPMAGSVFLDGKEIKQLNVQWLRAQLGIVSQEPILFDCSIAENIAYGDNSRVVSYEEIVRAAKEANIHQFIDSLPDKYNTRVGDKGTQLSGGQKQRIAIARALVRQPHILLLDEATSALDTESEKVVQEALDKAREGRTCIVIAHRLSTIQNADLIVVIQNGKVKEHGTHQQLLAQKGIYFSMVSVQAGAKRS
T1 sequence (P56817 46-501): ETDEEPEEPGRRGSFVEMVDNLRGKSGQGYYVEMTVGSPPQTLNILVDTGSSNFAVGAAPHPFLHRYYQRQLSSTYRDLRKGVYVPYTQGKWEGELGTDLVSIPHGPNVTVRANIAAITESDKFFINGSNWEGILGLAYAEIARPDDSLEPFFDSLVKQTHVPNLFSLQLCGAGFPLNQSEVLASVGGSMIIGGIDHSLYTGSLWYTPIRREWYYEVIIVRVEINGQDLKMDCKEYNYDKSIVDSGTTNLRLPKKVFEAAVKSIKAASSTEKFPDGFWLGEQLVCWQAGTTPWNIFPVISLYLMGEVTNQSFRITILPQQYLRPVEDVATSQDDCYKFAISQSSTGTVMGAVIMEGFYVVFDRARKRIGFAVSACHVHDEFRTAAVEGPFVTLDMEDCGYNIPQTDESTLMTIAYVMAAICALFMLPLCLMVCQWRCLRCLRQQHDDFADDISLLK

Take `C[C@H]1SC(N)=N[C@](C)(c2nc(NC(=O)c3ccc(F)cn3)ccc2F)[C@H]1F` [Compound I-2]: the half-inhibitory concentration (IC50) on Recombinant human BACE1 was 67.9 nM; in data set [1] it was 3.73 nM. In addition, the BA_% in data set [2] is 51.3%. Besides, on P-gp, the Kp at 2 h turned out to be 0.959.
Consider `C[C@H]1SC(N)=N[C@](C)(c2nc(NC(=O)c3cnc(OCF)cn3)ccc2F)[C@H]1F` [Compound I-3], for which the values for the half-inhibitory concentration (IC50) (at Recombinant human BACE1; in data set [1]) were 61.3 nM and 3.59 nM, respectively. The same molecule came in with a BA_% in data set [2] of 38.8%. Besides, on P-gp, the Kp at 2 h was 5.16.
As for `C[C@]1(c2nc(NC(=O)c3ccc(C#N)cn3)ccc2F)N=C(N)S[C@H](CF)[C@@H]1F` [Compound I-4], the half-maximal inhibitory concentration (IC50) is 11.5 nM at Recombinant human BACE1 and 0.697 nM in data set [1]. In addition, the BA_% in data set [2] was found to be 83.2%. In addition, on P-gp, the Kp at 2 h stood at 2.92.
In the case of `C[C@@]1(c2cc(NC(=O)c3ccc(C#N)cn3)ccc2F)C[C@@](C)(C(F)(F)F)OC(N)=N1` [Compound I-7], the IC50 amounted to 47.5 nM at Recombinant human BACE1 and 2.52 nM in data set [1]. The BA_% in data set [2] amounted to 32.8%. Moreover, the Kp at 2 h at P-gp turned out to be 4.21.
For `COc1cnc(C(=O)Nc2ccc(F)c([C@@]3(C)N=C(N)S[C@H](C)[C@@H]3F)c2)cn1` [Compound I-8], the figures for the IC50 (at Recombinant human BACE1; in data set [1]) were 11.8 nM and 0.26 nM, respectively. The same molecule came in with a BA_% in data set [2] of 27.4%. Also, the Kp at 2 h at P-gp stood at 2.22.

For orientation: IC50 means the concentration that gives 50% inhibition.

For the origin of these results see patent publication US20170073337A1, “DIHYDROTHIAZINE AND DIHYDROOXAZINE DERIVATIVES HAVING BACE1 INHIBITORY ACTIVITY” (Shionogi & Co., Ltd., priority 2014, published 2017).
